Reference: US20210382058A1, “PATIENT SELECTION FOR TREATMENT OF MYC POSITIVE CANCERS WITH INDENOISOQUINOLINES” (Purdue Research Foundation, priority 2020, published 2021)
Like-named read-outs stand apart in the source and are kept apart here.

Tests used:
[1] = molecular target: T1, human topoisomerase I (Homo sapiens, UniProt P11387); details: relative topoisomerase I inhibition levels, previously determined, six levels (0 - 5, +++++ = 5); cited from earlier work
T1 sequence (P11387 1-765): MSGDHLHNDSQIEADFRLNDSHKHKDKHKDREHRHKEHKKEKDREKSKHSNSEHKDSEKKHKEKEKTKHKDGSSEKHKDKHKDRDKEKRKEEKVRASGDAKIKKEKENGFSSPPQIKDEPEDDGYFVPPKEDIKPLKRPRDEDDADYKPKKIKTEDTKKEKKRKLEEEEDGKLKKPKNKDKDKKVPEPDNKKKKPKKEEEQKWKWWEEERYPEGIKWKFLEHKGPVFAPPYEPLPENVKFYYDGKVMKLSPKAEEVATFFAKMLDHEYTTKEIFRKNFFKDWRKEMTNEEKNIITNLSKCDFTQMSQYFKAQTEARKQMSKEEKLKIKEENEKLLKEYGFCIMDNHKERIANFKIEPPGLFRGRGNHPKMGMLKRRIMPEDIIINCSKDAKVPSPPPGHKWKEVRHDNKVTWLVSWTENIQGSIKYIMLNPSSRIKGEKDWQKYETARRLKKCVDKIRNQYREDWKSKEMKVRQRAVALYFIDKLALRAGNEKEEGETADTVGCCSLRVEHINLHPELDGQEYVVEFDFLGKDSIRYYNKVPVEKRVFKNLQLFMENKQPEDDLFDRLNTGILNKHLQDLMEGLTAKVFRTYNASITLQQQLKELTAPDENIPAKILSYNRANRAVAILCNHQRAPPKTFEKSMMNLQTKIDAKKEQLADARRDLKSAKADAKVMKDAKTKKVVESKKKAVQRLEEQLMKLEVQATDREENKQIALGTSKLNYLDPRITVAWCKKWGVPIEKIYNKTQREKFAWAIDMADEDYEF

[2] = system: MYC protein expression in MCF-7 breast cancer cells; assay: Western blotting of MYC protein level in MCF-7 cells; type: cell-based, human
Method in brief: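 Immunoblotting with ECL detection quantified MYC, with GAPDH (1:2000) as reference and anti-MYC at 1:1000.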

[3] = system: NCI-60 cancer cell lines; assay: NCI-60 cancer cell line drug screen (GI50, MGM); type: cell-based, human; details: Homo sapiens; for GI50: read-out: Antiproliferative Activities [GI50 (μM)]; for mean GI50 across NCI-60 panel (MGM): average of GI50 values across the entire panel of NCI-60 cancer cell lines
Procedure: Cancer cells were incubated with the test compounds at five concentrations ranging from 100 μM to 10 nM for 48 h. […] The approximate average of GI50 values across the entire panel of NCI-60 cancer cell lines for each compound was recorded as the MGM value.

[4] = A549, Non-Small Cell Lung Cancer, A549/ATCC
[5] = COLO 205, Colon Cancer, COLO 205
[6] = DU-145, Prostate Cancer, DU-145
[7] = EKVX, Non-Small Cell Lung Cancer, EKVX
[8] = HCC 2998, Colon Cancer, HCC-2998
[9] = HOP-62, Non-Small Cell Lung Cancer, HOP-62
[10] = HOP-92, Non-Small Cell Lung Cancer, HOP-92
[11] = Hs-578T, Breast Cancer, HS 578T
[12] = MDA-MB-231, Breast Cancer, MDA-MB-231/ATCC
[13] = MDA-MB-435, Melanoma, MDA-MB-435
[14] = NCI-H23, Non-Small Cell Lung Cancer, NCI-H23
[15] = NCI-H226, Non-Small Cell Lung Cancer, NCI-H226
[16] = NCI-H322M, Non-Small Cell Lung Cancer, NCI-H322M
[17] = NCI-H460, Non-Small Cell Lung Cancer, NCI-H460
[18] = NCI-H522, Non-Small Cell Lung Cancer, NCI-H522
[19] = OVCAR-3, Ovarian Cancer, OVCAR-3
[20] = OVCAR-4, Ovarian Cancer, OVCAR-4
[21] = OVCAR-5, Ovarian Cancer, OVCAR-5
[22] = OVCAR-8, Ovarian Cancer, OVCAR-8
[23] = SK-OV-3, Ovarian Cancer, SK-OV-3

For `COc1cnc2c(c1)C(=O)c1c-2n(CCCN2CCCC2)c(=O)c2cc([N+](=O)[O-])ccc12` [Compound 9], the “Top1 Inhibiton” value [1] is given as “++ (medium inhibition, ++, MYC expression inhibited at 2.0 μM, or no clear dose-dependent MYC inhibition)”, the “MYC-inhibitory effect (MYC protein, western blot)” value ([2]; MCF-7, 0.5, 1, 2, and 4 μM, 24 h) is given as “clear MYC-inhibitory effect” and the GI50 ([3]; 786-0, Renal Cancer, 786-0) is given as 0.03 µM. It also gave a GI50 [3, 4] of 0.05 µM, a GI50 ([3]; ACHN, Renal Cancer, ACHN) of less than 0.01 µM and a GI50 ([3]; BT-549, Breast Cancer, BT-549) of 0.35 µM. It also gave a GI50 ([3]; CAKI-1, Renal Cancer, CAKI-1) of less than 0.01 µM, a GI50 ([3]; CCRF-CEM, Leukemia, CCRF-CEM) of less than 0.01 µM and a GI50 [3, 5] of 0.04 µM. The GI50 [3, 6] was 0.02 µM, the GI50 [3, 7] was 0.3 µM and the GI50 [3, 8] was 0.16 µM. It also gave a GI50 ([3]; HCT-15, Colon Cancer, HCT-15) of 0.06 µM, a GI50 ([3]; HCT-116, Colon Cancer, HCT-116) of less than 0.01 µM and a GI50 ([3]; HL-60, Leukemia, HL-60(TB)) of 0.03 µM. For the same compound, the GI50 [3, 9] was less than 0.01 µM, the GI50 [3, 10] was 0.55 µM and the GI50 ([3]; HT-29, Colon Cancer, HT29) was 0.02 µM. The GI50 [3, 11] was 1.91 µM, the GI50 ([3]; IGROV-1, Ovarian Cancer, IGROV1) was 0.02 µM and the GI50 ([3]; K562, Leukemia, K-562) was 0.02 µM. It also gave a GI50 ([3]; KM12, Colon Cancer, KM12) of 0.14 µM, a GI50 ([3]; LOX IMVI, Melanoma, LOX IMVI) of less than 0.01 µM and a GI50 ([3]; Leukemia, SR) of less than 0.01 µM. It also gave a GI50 ([3]; MCF7, Breast Cancer, MCF7) of less than 0.01 µM, a GI50 [3, 12] of 0.68 µM and a GI50 [3, 13] of 0.06 µM. It also gave a GI50 ([3]; MDA-MB-468, Breast Cancer, MDA-MB-468) of 0.03 µM, a GI50 ([3]; MOLT-4, Leukemia, MOLT-4) of less than 0.01 µM and a GI50 ([3]; Malme-3M, Melanoma, MALME-3M) of 0.06 µM. For the same compound, the GI50 ([3]; Melanoma, M14) was less than 0.01 µM, the GI50 [3, 14] was 0.03 µM and the GI50 [3, 15] was 0.1 µM. It also gave a GI50 [3, 16] of 0.05 µM, a GI50 [3, 17] of less than 0.01 µM and a GI50 [3, 18] of 0.06 µM. The GI50 [3, 19] was 0.06 µM, the GI50 [3, 20] was 0.08 µM and the GI50 [3, 21] was 0.16 µM. The GI50 [3, 22] was 0.09 µM, the GI50 ([3]; Ovarian Cancer, NCl/ADR-RES) was 0.03 µM and the GI50 ([3]; Prostate Cancer, PC-3) was 0.07 µM. It also gave a GI50 ([3]; RPMI-8226, Leukemia, RPMI-8226) of 0.04 µM, a GI50 ([3]; RXF 393, Renal Cancer, RXF 393) of 0.06 µM and a GI50 ([3]; Renal Cancer, U0-31) of less than 0.01 µM. For the same compound, the GI50 ([3]; SF-268, CNS Cancer, SF-268) was 0.02 µM, the GI50 ([3]; SF-295, CNS Cancer, SF-295) was less than 0.01 µM and the GI50 ([3]; SF-539, CNS Cancer, SF-539) was 0.03 µM. For the same compound, the GI50 ([3]; SK-MEL-2, Melanoma, SK-MEL-2) was 1.01 µM, the GI50 ([3]; SK-MEL-5, Melanoma, SK-MEL-5) was 0.07 µM and the GI50 ([3]; SK-MEL-28, Melanoma, SK-MEL-28) was 10.6 µM. It also gave a GI50 [3, 23] of 0.03 µM, a GI50 ([3]; SN12C, Renal Cancer, SN12C) of 0.04 µM and a GI50 ([3]; SNB-19, CNS Cancer, SNB-19) of 0.04 µM. It also gave a GI50 ([3]; SNB-75, CNS Cancer, SNB-75) of 0.05 µM, a GI50 ([3]; SW-620, Colon Cancer, SW-620) of less than 0.01 µM and a GI50 ([3]; T47D, Breast Cancer, T-47D) of 0.02 µM. For the same compound, the GI50 ([3]; TK-10, Renal Cancer, TK-10) was 0.37 µM, the GI50 ([3]; U-251, CNS Cancer, U251) was 0.01 µM and the GI50 ([3]; UACC-62, Melanoma, UACC-62) was 0.02 µM. For the same compound, the GI50 ([3]; UACC-257, Melanoma, UACC-257) was 0.18 µM and the mean GI50 across NCI-60 panel (MGM) [3] was 45 nM.
In the case of `COc1ccc2c(c1)C(=O)c1c-2n(CCCN2CCOCC2)c(=O)c2ccccc12` [Compound 19], the “Top1 Inhibiton” value [1] is listed as “+++ (strong inhibition, +++, MYC expression inhibited at 0.5 to 1.0 μM)”, the minimal effective concentration ([2]; Homo sapiens, MCF7, western blotting, MCF-7 cells, 0.5, 1, 2, and 4 μM, 24 hours, read-out: MYC Inhibition) is listed as 2 µM and the GI50 ([3]; 786-0, Renal Cancer, 786-0) is listed as 1.78 µM. The GI50 ([3]; A498, Renal Cancer, A498) was 1.64 µM, the GI50 [3, 4] was 1.96 µM and the GI50 ([3]; ACHN, Renal Cancer, ACHN) was 1.67 µM. The GI50 ([3]; BT-549, Breast Cancer, BT-549) was 4.11 µM, the GI50 ([3]; CAKI-1, Renal Cancer, CAKI-1) was 3.17 µM and the GI50 ([3]; CCRF-CEM, Leukemia, CCRF-CEM) was 1.57 µM. The GI50 [3, 5] was 1.74 µM, the GI50 [3, 6] was 2.31 µM and the GI50 [3, 7] was 4.91 µM. It also gave a GI50 [3, 8] of 3.44 µM, a GI50 ([3]; HCT-15, Colon Cancer, HCT-15) of 2.9 µM and a GI50 ([3]; HCT-116, Colon Cancer, HCT-116) of 1.27 µM. For the same compound, the GI50 ([3]; HL-60, Leukemia, HL-60(TB)) was 4.28 µM, the GI50 [3, 9] was 1.41 µM and the GI50 [3, 10] was 4.47 µM. For the same compound, the GI50 ([3]; HT-29, Colon Cancer, HT29) was 2.48 µM, the GI50 [3, 11] was 8.95 µM and the GI50 ([3]; K562, Leukemia, K-562) was 5.13 µM. The GI50 ([3]; KM12, Colon Cancer, KM12) was 3.8 µM, the GI50 ([3]; LOX IMVI, Melanoma, LOX IMVI) was 1.34 µM and the GI50 ([3]; Leukemia, SR) was 0.29 µM. For the same compound, the GI50 ([3]; MCF7, Breast Cancer, MCF7) was 0.2 µM, the GI50 [3, 12] was 11.2 µM and the GI50 [3, 13] was 4.67 µM. It also gave a GI50 ([3]; MOLT-4, Leukemia, MOLT-4) of 0.87 µM, a GI50 ([3]; Malme-3M, Melanoma, MALME-3M) of 4.49 µM and a GI50 ([3]; Melanoma, M14) of 2.85 µM. For the same compound, the GI50 [3, 14] was 3.1 µM, the GI50 [3, 15] was 2.79 µM and the GI50 [3, 16] was 5.44 µM. The GI50 [3, 17] was 0.44 µM, the GI50 [3, 18] was 1.06 µM and the GI50 [3, 19] was 2.7 µM. The GI50 [3, 20] was 3.13 µM, the GI50 [3, 21] was 6.31 µM and the GI50 [3, 22] was 3.11 µM. It also gave a GI50 ([3]; Ovarian Cancer, NCl/ADR-RES) of 3.14 µM, a GI50 ([3]; Prostate Cancer, PC-3) of 19.5 µM and a GI50 ([3]; RPMI-8226, Leukemia, RPMI-8226) of 1.85 µM. The GI50 ([3]; RXF 393, Renal Cancer, RXF 393) was 7.16 µM, the GI50 ([3]; Renal Cancer, U0-31) was 0.42 µM and the GI50 ([3]; SF-268, CNS Cancer, SF-268) was 1.75 µM. For the same compound, the GI50 ([3]; SF-295, CNS Cancer, SF-295) was 1.27 µM, the GI50 ([3]; SF-539, CNS Cancer, SF-539) was 1.96 µM and the GI50 ([3]; SK-MEL-2, Melanoma, SK-MEL-2) was 19.5 µM. It also gave a GI50 ([3]; SK-MEL-5, Melanoma, SK-MEL-5) of 1.5 µM, a GI50 ([3]; SK-MEL-28, Melanoma, SK-MEL-28) of 8.03 µM and a GI50 [3, 23] of 2.67 µM. It also gave a GI50 ([3]; SN12C, Renal Cancer, SN12C) of 4.1 µM, a GI50 ([3]; SNB-19, CNS Cancer, SNB-19) of 2.13 µM and a GI50 ([3]; SNB-75, CNS Cancer, SNB-75) of 3.63 µM. The GI50 ([3]; SW-620, Colon Cancer, SW-620) was 1.68 µM, the GI50 ([3]; T47D, Breast Cancer, T-47D) was 1.07 µM and the GI50 ([3]; TK-10, Renal Cancer, TK-10) was 4.63 µM. It also gave a GI50 ([3]; U-251, CNS Cancer, U251) of 1.72 µM, a GI50 ([3]; UACC-62, Melanoma, UACC-62) of 1.58 µM and a GI50 ([3]; UACC-257, Melanoma, UACC-257) of 6.6 µM. For the same compound, the mean GI50 across NCI-60 panel (MGM) [3] was 2570 nM.
